Source: patent publication US20240360151A1 (SANOFI, priority 2023, published 2024)

Experiments:
[1] = test system: NF-kB pathway (TNF-α secretion by THP-1 cells); test: TNF-α secretion assay in LPS-stimulated THP-1 cells, Lumit immunoassay; format: cell-based, human; conditions: monocytic THP-1 cells, LPS 10 ng/mL, relative IC50, 10 concentrations, geometric mean
Outline: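 THP-1 monocytes in RPMI with 5% FBS were treated with compound, then stimulated with 10 ng/mL LPS for 3 h. Secreted TNF-α was measured in-plate by Lumit immunoassay. Relative IC50 came from 10-concentration curves fitted with a 4-parameter logistic model, reported as geometric mean.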

NLRP3 inflammasome = target: T1, NLRP3 inflammasome (Homo sapiens, UniProt Q96P20); test: IL-1β secretion assay (NLRP3 IC50) in LPS-primed, nigericin-activated THP-1 cells, HTRF; format: cell-based; conditions: monocytic THP-1 cells; LPS 10 ng/mL 3 h priming, then compound + nigericin 10 μM 2 h; relative IC50, 10 concentrations, geometric mean
T1 construct: endogenous in cells; host or cells: THP-1 monocytic cells
T1 sequence (Q96P20 whole entry): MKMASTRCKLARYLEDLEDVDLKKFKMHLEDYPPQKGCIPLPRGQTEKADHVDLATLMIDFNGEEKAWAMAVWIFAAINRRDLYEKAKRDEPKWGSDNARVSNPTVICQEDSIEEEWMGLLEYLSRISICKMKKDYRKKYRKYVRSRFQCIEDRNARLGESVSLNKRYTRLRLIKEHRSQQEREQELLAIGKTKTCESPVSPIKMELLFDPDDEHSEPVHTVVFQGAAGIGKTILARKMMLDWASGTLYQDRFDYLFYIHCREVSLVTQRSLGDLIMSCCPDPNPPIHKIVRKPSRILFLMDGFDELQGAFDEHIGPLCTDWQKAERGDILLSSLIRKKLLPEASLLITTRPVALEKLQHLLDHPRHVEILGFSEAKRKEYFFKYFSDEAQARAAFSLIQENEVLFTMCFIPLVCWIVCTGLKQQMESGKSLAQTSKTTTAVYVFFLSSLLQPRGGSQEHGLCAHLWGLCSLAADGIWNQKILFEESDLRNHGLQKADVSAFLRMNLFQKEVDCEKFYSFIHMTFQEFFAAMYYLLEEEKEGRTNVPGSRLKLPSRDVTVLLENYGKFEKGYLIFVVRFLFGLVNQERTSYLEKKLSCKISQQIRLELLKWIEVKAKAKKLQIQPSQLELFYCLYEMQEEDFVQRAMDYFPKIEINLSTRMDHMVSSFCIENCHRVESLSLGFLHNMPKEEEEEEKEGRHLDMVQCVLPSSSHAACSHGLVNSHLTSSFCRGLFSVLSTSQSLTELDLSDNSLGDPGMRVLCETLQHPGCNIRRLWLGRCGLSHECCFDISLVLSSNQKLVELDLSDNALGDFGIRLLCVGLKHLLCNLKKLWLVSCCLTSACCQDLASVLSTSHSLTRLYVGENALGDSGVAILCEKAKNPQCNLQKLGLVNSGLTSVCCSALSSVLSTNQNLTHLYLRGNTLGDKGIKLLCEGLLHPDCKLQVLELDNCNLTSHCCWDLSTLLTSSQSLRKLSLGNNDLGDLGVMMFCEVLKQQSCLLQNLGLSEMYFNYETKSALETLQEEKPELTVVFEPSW
Outline: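 THP-1 cells primed with LPS 10 ng/mL for 3 h at 37° C., then compound (10-point 1:3 dilution, 0.1% DMSO) added with 10 μM nigericin for 2 h. Supernatant IL-1β measured by HTRF; relative IC50 from a 4-parameter logistic fit, reported as geometric mean.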

SMILES | IC50 ([1]; Homo sapiens, THP-1, 3 h) | IC50 (NLRP3 inflammasome) | IC50 ([1]; 3 hours)
Cc1cc(C(C)C)cc(O)c1-c1ccc(N2CCO[C@H](CO)C2)nn1 [Example 274, 2-[6-[(2S)-2-(hydroxymethyl)morpholin-4-yl]pyridazin-3-yl]-5-isopropyl-3-methyl-phenol] | > 10000 nM | 171 nM | –
Cc1cc(Cl)cc(O)c1-c1ccc(N2CC[C@H](CO)C2)nn1 [Example 127, 5-chloro-2-[6-[(3S)-3-(hydroxymethyl)pyrrolidin-1-yl]pyridazin-3-yl]-3-methyl-phenol] | > 10000 nM | 125 nM | –
Cc1cc(C)c(-c2ccc(N3C[C@@H](CO)CC3=O)nn2)c(O)c1 (single isomer, unassigned) [Example 138] | > 10000 nM | 441 nM | –
OC[C@@H]1CN(c2nnc(-c3ccc(Cl)cc3O)c3c2CCC3)CCO1 [Example 78, 5-chloro-2-[4-[(2S)-2-(hydroxymethyl)morpholin-4-yl]-6,7-dihydro-5H-cyclopenta[d]pyridazin-1-yl]phenol] | > 10000 nM | 436 nM | –
CN1CC2(CCN(c3ccc(-c4c(O)cc(Cl)cc4Cl)nn3)CC2)C1 [Example 55, 3,5-dichloro-2-[6-(2-methyl-2,7-diazaspiro[3.5]nonan-7-yl)pyridazin-3-yl]phenol] | > 10000 nM | 176 nM | –
Cc1cc(C)c(-c2ccc(N3CCC[C@]4(C3)C[C@@H](O)C4)nn2)c(O)c1 (single isomer, unassigned; isomer 2) [Example 176, 6-[6-(2-hydroxy-4,6-dimethyl-phenyl)pyridazin-3-yl]-6-azaspiro[3.5]nonan-2-ol Isomer 2] | > 10000 nM | 250 nM | –
Cc1cc(C(F)(F)F)cc(O)c1-c1ccc(N2CCO[C@@H]3CCNC[C@@H]32)nn1 (single isomer, unassigned) [Example 252] | > 10000 nM | 461 nM | –
CC(=O)NC[C@@H]1CN(c2ccc(-c3c(C)cc(Cl)cc3O)nn2)CCO1 [Example 267, N-[[(2R)-4-[6-(4-chloro-2-hydroxy-6-methyl-phenyl)pyridazin-3-yl]morpholin-2-yl]methyl]acetamide] | > 10000 nM | 185 nM | –
Cc1cc(C(F)(F)F)cc(O)c1-c1ccc(N2CCO[C@H](CN(C)C)C2)nn1 (single isomer, unassigned) [Example 59, 2-[6-[-2-[(dimethylamino)methyl]morpholin-4-yl]pyridazin-3-yl]-3-methyl-5-(trifluoromethyl)phenol] | > 10000 nM | 203 nM | –
Cc1cc(C)c(-c2ccc(N3C[C@@H](O)CC3=O)nn2)c(O)c1 [Example 86, (4S)-4-hydroxy-1-[6-(2-hydroxy-4,6-dimethyl-phenyl)pyridazin-3-yl]pyrrolidin-2-one] | > 10000 nM | 506 nM | –
Oc1cc(Cl)cc(Cl)c1-c1ccc(N2CCC3(CC(O)C3)C2)nn1 (stereo not shown) [Example 42, 6-[6-(2,4-dichloro-6-hydroxy-phenyl)pyridazin-3-yl]-6-azaspiro[3.4]octan-2-ol] | > 10000 nM | 134 nM | –
Cc1cc(C)c(-c2ccc(N3CCO[C@H](CC(N)=O)C3)nn2)c(O)c1 (single isomer, unassigned) [Example 146] | > 10000 nM | 242 nM | –
Cc1cc(Cl)cc(O)c1-c1ccc(N2CCOc3cc(O)ccc32)nn1 [Example 193, 4-[6-(4-chloro-2-hydroxy-6-methyl-phenyl)pyridazin-3-yl]-2,3-dihydro-1,4-benzoxazin-7-ol] | 9830 nM | 534 nM | –

Now those with a lower IC50 (NLRP3 inflammasome), led by results:

IC50 ([1]; Homo sapiens, THP-1, 3 h) | IC50 (NLRP3 inflammasome) | IC50 ([1]; 3 hours) | SMILES
> 10000 nM | 39 nM | – | CC(=O)NC[C@H]1CCCN(c2ccc(-c3c(C)cc(Cl)cc3O)nn2)C1 [Example 212, N-[[(3R)-1-[6-(4-chloro-2-hydroxy-6-methyl-phenyl)pyridazin-3-yl]-3-piperidyl]methyl]acetamide]
> 10000 nM | 25 nM | – | Cc1cc(C(F)(F)F)cc(O)c1-c1ccc(N2CCO[C@H](CO)C2)nn1 [Example 16, 2-[6-[(2S)-2-(hydroxymethyl)morpholin-4-yl]pyridazin-3-yl]-3-methyl-5-(trifluoromethyl)phenol]
> 10000 nM | 109 nM | – | NC[C@H]1CCN(c2ccc(-c3c(O)cc(Cl)cc3Cl)nn2)C1 [Example 25, 2-[6-[(3R)-3-(aminomethyl)pyrrolidin-1-yl]pyridazin-3-yl]-3,5-dichloro-phenol]
> 10000 nM | 28 nM | – | Cc1cc(C)c(-c2ccc(N3C[C@H](CO)O[C@H](C)C3)nn2)c(O)c1 [Example 365, 2-[6-[(2R,6R)-2-(hydroxymethyl)-6-methyl-morpholin-4-yl]pyridazin-3-yl]-3,5-dimethyl-phenol]
> 10000 nM | 18 nM | – | Cc1cc(Cl)cc(O)c1-c1ccc(N2CCO[C@H]3CCNC[C@H]32)nn1 (racemic) [Example 221, 2-[6-[rac-(4aR,8aS)-2,3,4a,5,6,7,8,8a-octahydropyrido[4,3-b][1,4]oxazin-4-yl]pyridazin-3-yl]-5-chloro-3-methyl-phenol]
> 10000 nM | 11 nM | – | [2H]C([2H])(O)[C@@H]1CN(c2ccc(-c3c(C)cc(C(F)(F)F)cc3O)nn2)CCO1 [Example 192, 2-[6-[(2S)-2-[dideuterio(hydroxy)methyl]morpholin-4-yl]pyridazin-3-yl]-3-methyl-5-(trifluoromethyl)phenol]
> 10000 nM | 3 nM | – | CCc1cc(Cl)cc(O)c1-c1ccc(N2CCO[C@@H]3CCN(C(C)=O)C[C@@H]32)nn1 [Example 381, 1-[(4aS,8aR)-4-[6-(4-chloro-2-ethyl-6-hydroxy-phenyl)pyridazin-3-yl]-3,4a,5,7,8,8a-hexahydro-2H-pyrido[4,3-b][1,4]oxazin-6-yl]ethanone]
> 10000 nM | 16 nM | – | Cc1cc(C)c(-c2ccc(N3C[C@@H](CO)O[C@H](CO)C3)nn2)c(O)c1 [Example 198, 2-[6-[(2S,6S)-2,6-bis(hydroxymethyl)morpholin-4-yl]pyridazin-3-yl]-3,5-dimethyl-phenol]
> 10000 nM | 11 nM | – | Cc1cc(C(F)(F)F)cc(O)c1-c1ccc(N2C[C@@H](CO)O[C@@H](C)C2)nn1 [Example 297, 2-[6-[(2S,6S)-2-(hydroxymethyl)-6-methyl-morpholin-4-yl]pyridazin-3-yl]-3-methyl-5-(trifluoromethyl)phenol]
> 10000 nM | 3 nM | – | Cc1cc(C)c(-c2ccc(N3CCO[C@@H]4CCN(C5CCC5)C[C@@H]43)nn2)c(O)c1 (single isomer, unassigned) [Example 11]
> 10000 nM | 15 nM | – | Cc1cccc(O)c1-c1ccc(N2CCO[C@H]3CCN(C)C[C@H]32)nn1 [Example 299, 2-[6-[(4aR,8aS)-6-methyl-3,4a,5,7,8,8a-hexahydro-2H-pyrido[4,3-b][1,4]oxazin-4-yl]pyridazin-3-yl]-3-methyl-phenol]
> 10000 nM | 1.1 nM | – | Cc1ccc(-c2nnc(N3CCO[C@@H]4CCN(C)C[C@@H]43)cc2C)c(O)c1 [Example 373, 2-[6-[(4aS,8aR)-6-methyl-3,4a,5,7,8,8a-hexahydro-2H-pyrido[4,3-b][1,4]oxazin-4-yl]-4-methyl-pyridazin-3-yl]-5-methyl-phenol]
> 10000 nM | 109 nM | – | Cc1cc(C(F)(F)F)cc(O)c1-c1ccc(N2CCC[C@H](CO)C2)nn1 [Example 28, 2-[6-[(3S)-3-(hydroxymethyl)-1-piperidyl]pyridazin-3-yl]-3-methyl-5-(trifluoromethyl)phenol]
> 10000 nM | 42 nM | – | CC(=O)N1CC[C@@H]2OCCN(c3ccc(-c4c(C)cc(Cl)cc4O)nn3)[C@@H]2C1 (racemic) [Example 222, 1-[rac-(4aR,8aS)-4-[6-(4-chloro-2-hydroxy-6-methyl-phenyl)pyridazin-3-yl]-3,4a,5,7,8,8a-hexahydro-2H-pyrido[4,3-b][1,4]oxazin-6-yl]ethanone]
> 10000 nM | 31 nM | – | CC(=O)N1CC[C@H]2OCCN(c3cc(C(F)F)c(-c4ccc(C)cc4O)nn3)[C@H]2C1 [Example 387, 1-[(4aS,8aR)-4-[5-(difluoromethyl)-6-(2-hydroxy-4-methyl-phenyl)pyridazin-3-yl]-3,4a,5,7,8,8a-hexahydro-2H-pyrido[4,3-b][1,4]oxazin-6-yl]ethanone]
> 10000 nM | 7 nM | – | Cc1cc(C(F)(F)F)cc(O)c1-c1ccc(N2C[C@@H](CO)O[C@@H](CO)C2)nn1 [Example 178, 2-[6-[(2R,6S)-2,6-bis(hydroxymethyl)morpholin-4-yl]pyridazin-3-yl]-3-methyl-5-(trifluoromethyl)phenol]
> 10000 nM | 92 nM | – | Cc1cc(OC(F)(F)F)cc(O)c1-c1ccc(N2CCO[C@H](CO)C2)nn1 [Example 121, 2-[6-[(2S)-2-(hydroxymethyl)morpholin-4-yl]pyridazin-3-yl]-3-methyl-5-(trifluoromethoxy)phenol]
– | 51 nM | 2040 nM | CC(=O)NCCC1CN(c2ccc(-c3c(C)cc(C(F)(F)F)cc3O)nn2)CCO1 (single isomer, unassigned) [Example 277, N-[2-[4-[6-[2-hydroxy-6-methyl-4-(trifluoromethyl)phenyl]pyridazin-3-yl]morpholin-2-yl]ethyl]acetamide]
4120 nM | 24 nM | – | Oc1cc(Cl)cc(Cl)c1-c1ccc(N2CCO[C@@H](CF)C2)nn1 (single isomer, unassigned) [Example 237]
